Assay [1] addresses Sphingosine kinase 1 (Homo sapiens, UniProt Q9NYA1). The assay is described as follows: Inhibition of human SphK1 expressed in baculovirus infected in Sf9 cells using D-erythro-sphingosine as substrate and [gamma-32P]ATP by scintillation counting method.
In assay [2] the target is T1, Sphingosine kinase 2 (Homo sapiens, UniProt Q9NRA0).
T1 sequence (Q9NRA0 whole entry): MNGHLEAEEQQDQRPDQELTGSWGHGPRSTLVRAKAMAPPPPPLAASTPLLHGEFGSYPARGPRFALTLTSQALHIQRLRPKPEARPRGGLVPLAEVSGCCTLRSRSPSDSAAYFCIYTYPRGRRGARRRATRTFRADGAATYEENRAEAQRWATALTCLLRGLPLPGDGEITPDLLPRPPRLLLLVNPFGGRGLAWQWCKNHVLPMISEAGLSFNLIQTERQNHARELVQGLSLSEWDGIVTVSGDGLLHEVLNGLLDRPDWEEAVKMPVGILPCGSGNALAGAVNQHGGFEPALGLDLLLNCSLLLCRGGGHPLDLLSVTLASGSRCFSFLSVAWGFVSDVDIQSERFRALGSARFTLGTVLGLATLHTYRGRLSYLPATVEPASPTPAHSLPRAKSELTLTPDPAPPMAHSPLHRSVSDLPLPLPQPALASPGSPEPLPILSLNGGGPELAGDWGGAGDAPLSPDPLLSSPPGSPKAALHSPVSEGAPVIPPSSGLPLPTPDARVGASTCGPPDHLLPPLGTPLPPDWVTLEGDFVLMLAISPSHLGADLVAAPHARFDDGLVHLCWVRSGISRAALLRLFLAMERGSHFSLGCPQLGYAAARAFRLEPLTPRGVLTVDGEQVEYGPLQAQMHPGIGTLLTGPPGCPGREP
The assay is described as follows: Inhibition of human SphK2 expressed in baculovirus infected in Sf9 cells using D-erythro-sphingosine as substrate and [gamma-32P]ATP by scintillation counting method.

Chain of Sphingosine kinase 1 (Q9NYA1 whole entry): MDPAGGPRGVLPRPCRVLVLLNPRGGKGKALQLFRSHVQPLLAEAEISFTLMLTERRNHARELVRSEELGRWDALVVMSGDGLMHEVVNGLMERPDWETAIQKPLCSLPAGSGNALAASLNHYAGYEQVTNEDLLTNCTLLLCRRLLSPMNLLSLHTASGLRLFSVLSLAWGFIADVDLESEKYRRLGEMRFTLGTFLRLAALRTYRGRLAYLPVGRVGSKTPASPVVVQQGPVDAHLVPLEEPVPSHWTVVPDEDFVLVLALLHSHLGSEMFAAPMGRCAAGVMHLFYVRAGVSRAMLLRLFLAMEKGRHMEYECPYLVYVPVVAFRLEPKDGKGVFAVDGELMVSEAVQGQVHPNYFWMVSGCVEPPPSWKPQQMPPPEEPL

For the compound `CCCCCCCCCCCCCc1ccc(-c2noc(C3(C(=N)N)CC3)n2)cc1`, the figures for the Ki in assay [1] and in assay [2] were 2.5 µM and 11 µM, respectively.

Regarding `CCCCCCCCCCCCc1cccc(-c2noc(C3(C(=N)N)CC3)n2)c1`, the inhibition constant (Ki) came to 0.04 µM in assay [1] and 14.1 µM in assay [2].

`CCCCCCCCCCCc1cccc(-c2noc(C3(C(=N)N)CC3)n2)c1`: the Ki came out at 0.07 µM in assay [1] and 9.9 µM in assay [2].

Turning to `CCCCCCCCCCCCc1ccc(-c2noc(C3(C(=N)N)CC3)n2)cc1`, the figures for the Ki in assay [1] and in assay [2] were 0.32 µM and 6 µM, respectively.

A word on the Ki: it is the dissociation constant of the complex between target and ligand, obtained from inhibition or displacement. The low end stands for higher affinity, the high end for lower affinity.

(Values after ChEMBL document CHEMBL3808381, “Structural Requirements and Docking Analysis of Amidine-Based Sphingosine Kinase 1 Inhibitors Containing Oxadiazoles” (ACS Med Chem Lett, 2016).)
